Source: patent US20230414598A1, “COMBINATION THERAPIES WITH CBL-B INHIBITOR COMPOUNDS AND ANTIEMETIC AGENTS” (NURIX THERAPEUTICS, INC., priority 2022, published 2023)

Legend:
Assay type in all cases: in vivo, human
[1] = test system: patient's nausea and vomiting symptoms; assay: Antiemetic given prior to compound 23: control of nausea and vomiting; settings: for effect on emetic symptoms (nausea and vomiting): single oral dose 30-60 minutes prior to compound 23 dosing
Protocol: Prior to administration of compound 23, the antiemetic was administered as outlined below. Example 1: ondansetron via IV: 8 mg or 0.15 mg/kg as single dose; maximum dose of 16 mg/dose. Example 1B: ondansetron via oral: 8 mg up to twice daily. In this example, the patient was weaned off ondansetron via oral after two weeks. […] Example 2: granisetron via IV: 1 mg or 10 mcg/kg as a single dose. Example 2B granisetron via oral: 2 mg as a single dose. In this example, the patient was weaned off oral granisetron after four weeks. […] Example 2C: granisetron via SUBQ: 10 mg as single dose. Example 2D: granisetron via transdermal: apply one patch. Example 5: metoclopramide, a dopamine antagonist, via oral: 10 mg 30 minutes prior to the adminstration of compound 23. […] Example 6: diphenhydramine, a histamine antagonist, via oral or parental: 25 mg or 50 mg 30 minutes prior to the adminstration of compound 23.

[2] = Pharmacokinetic analysis of compound 23 plasma concentrations in patients (LC-MS/MS, non-compartmental); settings: for AUC(0-t) / Cmax / half-life / Tmax: human, plasma; for AUC(0-t) / Cmax: geometric mean; for half-life: mean; for Tmax: median
Protocol: Patients were administered doses of compound 23 ranging from 5 to 50 mg once daily. Plasma concentrations of compound 23 were quantified using acetonitrile precipitation and LC-MS/MS. The peak area of the product ion of the analyte was measured against the peak area of the product ion of the stable label internal standard. A calibration curve spanning the curve range and containing at least six conentrations in duplicate was used to quantify the analyte concentration. The retention times of the analyte and internal standard are approximately 1.5 minutes. PK analyses were donucted using non-compartmental analyses to obtain PK parameters. […] Patients were administered doses of compound 23 ranging from 5 to 50 mg once daily. Plasma concentrations of compound 23 were quantified using acetonitrile precipitation and LC-MS/MS. The peak area of the product ion of the analyte was measured against the peak area of the product ion of the stable label internal standard. A calibration curve spanning the curve range and containing at least six conentrations in duplicate was used to quantify the analyte concentration. The retention times of the analyte and internal standard are approximately 1.5 minutes. PK analyses were donucted using non-compartmental analyses to obtain PK parameters. […] PK data are provided below (Cmax and AUC0-last are presented as geometric mean (geometric %C V); Tmax is presented as median (range); t1/2 is presented as mean (% CV).

[3] = Adverse events after oral administration of compound 23 to patients
Protocol: The nausea and vomiting symptoms were mitigated when a single oral (versus other routes of adminstration such as intravenous) dose of 5-HT3 antagonist was administered 30-60 minutes prior to the compound 23 dosing. […] The adverse events (e.g., symptoms include nausea, vomiting, headache, hypotension, tachycardia, bradycardia, among others) were resolved within 24 hours prior to the next dose. The nausea and vomiting were controlled by serotonin (5-HT3) receptor blockers, ondansetron and granisetron.

5-HT = 5-HT levels in the local gut after compound 23; settings: after administration of compound 23
[4] = Cycle 1 Day 1, 5 mg once daily (n = 1)
[5] = Cycle 1 Day 1, 15 mg once daily (n = 9)
[6] = Cycle 1 Day 1, 25 mg once daily (n = 6)
[7] = Cycle 1 Day 1, 50 mg once daily (n = 2)
[8] = 25 mg and 50 mg single daily dose administered fasting

## CCN(CC)CCNC(=O)c1cc(Cl)c(N)cc1OC [metoclopramide]
[1]; oral 10 mg 30 minutes prior to compound 23
  control of nausea and vomiting symptoms: did not control the patient's nausea and vomiting sympotms

## CN1C2CCCC1CC(NC(=O)c1nn(C)c3ccccc13)C2 (stereo not shown) [granisetron]
[1]
  effect on emetic symptoms (nausea and vomiting): reduced emetic symptoms

## Cc1nccn1CC1CCc2c(c3ccccc3n2C)C1=O (stereo not shown) [ondansetron]
[1]
  effect on emetic symptoms (nausea and vomiting): reduced emetic symptoms

## CN(C)CCOC(c1ccccc1)c1ccccc1 [diphenhydramine]
[1]; oral or parenteral 25 mg or 50 mg 30 minutes prior to compound 23
  control of nausea and vomiting symptoms: did not control the patient's nausea and vomiting sympotms

## C[C@H]1CCCN(Cc2cc3c(c(C(F)(F)F)c2)CN(c2cccc([C@]4(c5nncn5C)C[C@@H](C)C4)c2)C3=O)C1 [Compound 23]
[2]; 5 to 50 mg once daily
  accumulation upon repeat daily dosing: no accumulation
  dose proportionality of exposures: dose-proportional increase in exposures
[2]; [4]
  AUC(0-t): 26.2 ng·h/mL
  Cmax: 4.35 ng/mL
  half-life: 7.72 h
  Tmax: 2 h
[2]; [5]
  AUC(0-t): 129 ng·h/mL
  Cmax: 16.2 ng/mL
  half-life: 7.14 h
  Tmax: 2 h
[2]; [6]
  AUC(0-t): 201 ng·h/mL
  Cmax: 30.1 ng/mL
  half-life: 6.82 h
  Tmax: 1.5 h
[2]; [7]
  AUC(0-t): 502 ng·h/mL
  Cmax: 79.2 ng/mL
  half-life: 5.88 h
  Tmax: 2.5 h
[3]; [8]
  adverse events induced: signficant events of nausea, vomiting, synocope, tachycardia, hypotension, and bradycardia
  time to onset of adverse events: ≤ 2 h
[3]; nausea, vomiting, headache, hypotension, tachycardia, bradycardia, prior to the next dose
  time to resolution of adverse events: ≤ 24 h
[1]; daily compound 23 after patient weaned off oral granisetron after four weeks
  need for antiemetic after weaning: without the need for granisetron
[1]; daily compound 23 after patient weaned off oral ondansetron after two weeks
  need for antiemetic after weaning: without the need for ondanesetron
5-HT
  levels of 5-HT in the local gut: increased levels of 5-HT in the local gut
